In patent EP4620959A1, “CYCLIC COMPOUNDS USED AS MULTI-TARGET KINASE INHIBITORS AND PREPARATION METHOD THEREFOR” (Shanghai Institute of Organic Chemistry, Chinese Academy of …, priority 2022, dated 2024):
pIC50: −log10 of the molar value. Where two headings read alike, the source gives them in different places.

Key:
DYRK2 = DYRK2 (Homo sapiens, UniProt Q92630); test: Kinase activity inhibition assay (ADP-Glo), DYRK2; assay type: biochemical; details: ATP 5 µM
Procedure: (§1) The kinase activity inhibition assay was performed by ICE Bioscience (Beijing) using ADP-Glo and HTRF methods.
(§2) Table 1.1-1 ADP-Glo Buffer
(§3) Table 1.2-1 ADP-Glo Kinase and Substrate Formulation
(§4) SD is the standard error, and AVE is the average value. Table 2-1 LRRK2 Activity Inhibition Test Results

FGFR1 V561M = FGFR1 V561M (Homo sapiens, UniProt P11362, V561M); test: Kinase activity inhibition assay (HTRF), FGFR1 V561M; assay type: biochemical; details: ATP 20 µM
Procedure: as §1
(§5) Table 1.2-2 HTRF Kinase and Substrate Formulation
(§6) • 1) 2×ATP/substrate solution and 2×kinase/metal ion solution were prepared using kinase reaction buffer; • 2) 20 nL (ADP-GLo) or 40 nL (HTRF) of compound dilution was transferred using Echo 655 onto a 384-well assay plate; after centrifugation, 2 µL of 2×kinase and metal ion solution were added to the 384-well assay plate, centrifuged at 1000 rpm for 1 min, and incubated at 25°C for 10 min; • 3) 2 µL of 2×substrate and ATP solution were added to the 384-well assay plate, centrifuged at 1000 rpm for 1 min, and incubated at 25°C for 60 min. • 4) 4 µL of ADP-Glo was transferred to the 384-well assay plate, entrifuged at 1000 rpm for 1 min, and incubated at 25°C for 40 min. • 5) 8 µL of detection solution was transferred to the 384-well assay plate, centrifuged at 1000 rpm for 1 min, and incubated at 25°C for 40 min. • 6) Luminescence signals was read using a multifunctional microplate reader.
as §4

FGFR2 V564I = FGFR2 V564I (Homo sapiens, UniProt P21802, V564I); test: Kinase activity inhibition assay (HTRF), FGFR2 V564I; assay type: biochemical; details: ATP 20 µM
FGFR2 V564I, sequence (P21802 22-821 V564I): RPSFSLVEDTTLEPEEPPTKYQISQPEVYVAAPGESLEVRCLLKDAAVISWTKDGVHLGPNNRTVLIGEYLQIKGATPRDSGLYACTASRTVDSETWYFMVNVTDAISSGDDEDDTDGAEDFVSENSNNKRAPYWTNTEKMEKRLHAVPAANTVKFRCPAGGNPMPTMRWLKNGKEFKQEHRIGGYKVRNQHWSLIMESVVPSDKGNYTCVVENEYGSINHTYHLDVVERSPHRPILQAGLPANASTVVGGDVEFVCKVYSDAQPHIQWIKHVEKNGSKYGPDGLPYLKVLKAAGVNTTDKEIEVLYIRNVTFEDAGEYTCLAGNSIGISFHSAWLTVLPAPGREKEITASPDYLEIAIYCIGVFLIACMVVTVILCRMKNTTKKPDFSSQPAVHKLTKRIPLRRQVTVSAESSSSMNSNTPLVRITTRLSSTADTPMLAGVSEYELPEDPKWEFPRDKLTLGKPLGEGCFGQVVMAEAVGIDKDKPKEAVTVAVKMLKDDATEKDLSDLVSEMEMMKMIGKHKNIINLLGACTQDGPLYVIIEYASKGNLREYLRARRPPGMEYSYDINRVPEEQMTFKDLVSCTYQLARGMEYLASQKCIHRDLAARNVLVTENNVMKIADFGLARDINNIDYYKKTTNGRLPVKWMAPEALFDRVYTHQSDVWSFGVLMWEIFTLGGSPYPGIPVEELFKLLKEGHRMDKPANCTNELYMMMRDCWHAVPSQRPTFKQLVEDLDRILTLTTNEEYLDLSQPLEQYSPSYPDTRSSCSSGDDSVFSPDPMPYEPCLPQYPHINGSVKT
Procedure: as §1, §5, §6, §4

KDR = KDR (Homo sapiens, UniProt P35968); test: Kinase activity inhibition assay (HTRF), KDR; assay type: biochemical; details: ATP 4 µM
Procedure: as §1, §5, §4

PDGFRα = PDGFRα (Homo sapiens, UniProt P16234); test: Kinase activity inhibition assay (HTRF), PDGFRα; assay type: biochemical; details: ATP 0.5 µM
Procedure: as §1, §5, §6, §4

FGFR4 = FGFR4 (Homo sapiens, UniProt P22455); test: Kinase activity inhibition assay (HTRF), FGFR4; assay type: biochemical; details: ATP 50 µM
Procedure: as §1, §5, §6, §4

[1] = Oral pharmacokinetic study in rats; details: rat, in vivo, male SD rats, oral gavage, 1% MC; for AUC(0-t) at 8 h: read-out: AUC0-8
Procedure: Drug preparation: 1% MC was added to the compound, ground, and shaken uniformly. Samples were collected at 5 min, 15 min, 30 min, 1 h, 2 h, 4 h, and 8 h post-dose, followed by analysis using liquid chromatography-tandem mass spectrometry (LC-MS/MS). Table 3 PK Data of Selected Compounds

FGFR1 = FGFR1 (Homo sapiens, UniProt P11362); test: Kinase activity inhibition assay (HTRF), FGFR1; assay type: biochemical; details: ATP 40 µM
Procedure: as §1, §5, §6, §4

FGFR4 V550M = FGFR4 V550M (Homo sapiens, UniProt P22455, V550M); test: Kinase activity inhibition assay (HTRF), FGFR4 V550M; assay type: biochemical; details: ATP 60 µM
Procedure: as §1, §5, §4

FGFR2 = FGFR2 (Homo sapiens, UniProt P21802); test: Kinase activity inhibition assay (HTRF), FGFR2; assay type: biochemical; details: ATP 20 µM
FGFR2, sequence (P21802 22-821): as the sequence (P21802 22-821 V564I) above, with I543V counted along it
Procedure: as §1, §5, §6, §4

FLT1 = FLT1 (Homo sapiens, UniProt P17948); test: Kinase activity inhibition assay (ADP-Glo), FLT1; assay type: biochemical; details: ATP 50 µM
Procedure: as §1, §2, §3, §6, §4

FGFR2 N549H = FGFR2 N549H (Homo sapiens, UniProt P21802, N549H); test: Kinase activity inhibition assay (HTRF), FGFR2 N549H; assay type: biochemical; details: ATP 9 µM
FGFR2 N549H, sequence (P21802 22-821 N549H): as the sequence (P21802 22-821 V564I) above, with N528H, I543V counted along it
Procedure: as §1, §5, §4

FGFR3 V555L = FGFR3 V555L (Homo sapiens, UniProt P22607, V555L); test: Kinase activity inhibition assay (HTRF), FGFR3 V555L; assay type: biochemical; details: ATP 20 µM
Procedure: as §1, §5, §6, §4

FGFR3 = FGFR3 (Homo sapiens, UniProt P22607); test: Kinase activity inhibition assay (HTRF), FGFR3; assay type: biochemical; details: ATP 50 µM
Procedure: as §1, §5, §6, §4

FGFR3 V555M = FGFR3 V555M (Homo sapiens, UniProt P22607, V555M); test: Kinase activity inhibition assay (HTRF), FGFR3 V555M; assay type: biochemical; details: ATP 20 µM
Procedure: as §1, §5, §6, §4

FLT3 = FLT3 (Homo sapiens, UniProt P36888); test: Kinase activity inhibition assay (HTRF), FLT3; assay type: biochemical; details: ATP 2 µM
Procedure: as §1, §5, §6, §4

FGFR3 K650M = FGFR3 K650M (Homo sapiens, UniProt P22607, K650M); test: Kinase activity inhibition assay (HTRF), FGFR3 K650M; assay type: biochemical; details: ATP 12 µM
Procedure: as §1, §5, §4

RET V804L = RET V804L (Homo sapiens, UniProt P07949, V804L); test: Kinase activity inhibition assay (HTRF), RET V804L; assay type: biochemical; details: ATP 5 µM
Procedure: as §1, §5, §6, §4

FGFR4 N535K = FGFR4 N535K (Homo sapiens, UniProt P22455, N535K); test: Kinase activity inhibition assay (HTRF), FGFR4 N535K; assay type: biochemical; details: ATP 100 µM
Procedure: as §1, §5, §6, §4

TYRO3 = TYRO3 (Homo sapiens, UniProt Q06418); test: Kinase activity inhibition assay (HTRF), TYRO3; assay type: biochemical; details: ATP 0.5 µM
Procedure: as §1, §5, §4

FGFR4 V550L = FGFR4 V550L (Homo sapiens, UniProt P22455, V550L); test: Kinase activity inhibition assay (ADP-Glo), FGFR4 V550L; assay type: biochemical; details: ATP 20 µM
Procedure: as §1, §2, §3, §4

FGFR2 V564F = FGFR2 V564F (Homo sapiens, UniProt P21802, V564F); test: Kinase activity inhibition assay (HTRF), FGFR2 V564F; assay type: biochemical; details: ATP 15 µM
FGFR2 V564F, sequence (P21802 22-821 V564F): as the sequence (P21802 22-821 V564I) above, with I543F counted along it
Procedure: as §1, §5, §6, §4

FLT4 = FLT4 (Homo sapiens, UniProt P35916); test: Kinase activity inhibition assay (HTRF), FLT4; assay type: biochemical; details: ATP 32 µM
FLT4, sequence (P35916 25-1363): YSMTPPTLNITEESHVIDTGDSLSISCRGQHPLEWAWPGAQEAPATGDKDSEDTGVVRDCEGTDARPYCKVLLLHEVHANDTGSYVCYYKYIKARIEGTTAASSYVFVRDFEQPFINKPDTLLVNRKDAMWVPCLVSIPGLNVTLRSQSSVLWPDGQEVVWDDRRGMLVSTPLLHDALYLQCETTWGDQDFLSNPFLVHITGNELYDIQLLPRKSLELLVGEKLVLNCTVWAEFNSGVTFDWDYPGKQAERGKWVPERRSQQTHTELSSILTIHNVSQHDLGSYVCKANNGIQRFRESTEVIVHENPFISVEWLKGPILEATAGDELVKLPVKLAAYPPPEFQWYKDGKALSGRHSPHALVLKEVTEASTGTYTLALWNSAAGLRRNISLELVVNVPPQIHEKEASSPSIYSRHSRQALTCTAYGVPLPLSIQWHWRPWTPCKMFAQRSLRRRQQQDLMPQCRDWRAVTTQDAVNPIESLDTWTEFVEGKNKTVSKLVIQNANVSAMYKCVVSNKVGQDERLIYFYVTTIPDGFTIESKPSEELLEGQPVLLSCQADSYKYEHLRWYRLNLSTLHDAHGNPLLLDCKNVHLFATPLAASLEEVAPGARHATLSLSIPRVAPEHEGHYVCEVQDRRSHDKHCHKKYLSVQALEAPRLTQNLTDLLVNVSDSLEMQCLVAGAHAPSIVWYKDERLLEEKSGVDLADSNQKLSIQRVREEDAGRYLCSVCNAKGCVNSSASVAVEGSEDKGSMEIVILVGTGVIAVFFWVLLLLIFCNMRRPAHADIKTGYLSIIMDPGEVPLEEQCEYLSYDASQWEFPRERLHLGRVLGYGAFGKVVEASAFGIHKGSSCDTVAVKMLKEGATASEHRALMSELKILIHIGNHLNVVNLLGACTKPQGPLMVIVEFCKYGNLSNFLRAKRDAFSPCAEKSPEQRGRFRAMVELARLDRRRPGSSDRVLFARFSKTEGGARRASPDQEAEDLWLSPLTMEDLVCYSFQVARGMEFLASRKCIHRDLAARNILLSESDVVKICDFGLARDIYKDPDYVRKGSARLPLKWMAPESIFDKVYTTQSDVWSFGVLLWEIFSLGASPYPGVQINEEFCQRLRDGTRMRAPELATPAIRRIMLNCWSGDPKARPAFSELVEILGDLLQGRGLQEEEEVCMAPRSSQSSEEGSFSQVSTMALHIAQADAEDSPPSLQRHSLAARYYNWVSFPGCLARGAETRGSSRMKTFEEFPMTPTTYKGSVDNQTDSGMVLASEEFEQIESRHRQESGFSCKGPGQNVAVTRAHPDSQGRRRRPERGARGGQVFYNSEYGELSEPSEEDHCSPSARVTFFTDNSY
Procedure: as §1, §5, §6, §4

LRRK2 G2019S = LRRK2 G2019S (Homo sapiens, UniProt Q5S007, G2019S); test: Kinase activity inhibition assay (ADP-Glo), LRRK2 G2019S; assay type: biochemical; details: for inhibition at 0.1 µM: read-out: LRRK2 G2019S inhibition rate at 100 nM, ATP 100 µM, compound at 100 nM
LRRK2 G2019S, sequence (Q5S007 whole entry G2019S): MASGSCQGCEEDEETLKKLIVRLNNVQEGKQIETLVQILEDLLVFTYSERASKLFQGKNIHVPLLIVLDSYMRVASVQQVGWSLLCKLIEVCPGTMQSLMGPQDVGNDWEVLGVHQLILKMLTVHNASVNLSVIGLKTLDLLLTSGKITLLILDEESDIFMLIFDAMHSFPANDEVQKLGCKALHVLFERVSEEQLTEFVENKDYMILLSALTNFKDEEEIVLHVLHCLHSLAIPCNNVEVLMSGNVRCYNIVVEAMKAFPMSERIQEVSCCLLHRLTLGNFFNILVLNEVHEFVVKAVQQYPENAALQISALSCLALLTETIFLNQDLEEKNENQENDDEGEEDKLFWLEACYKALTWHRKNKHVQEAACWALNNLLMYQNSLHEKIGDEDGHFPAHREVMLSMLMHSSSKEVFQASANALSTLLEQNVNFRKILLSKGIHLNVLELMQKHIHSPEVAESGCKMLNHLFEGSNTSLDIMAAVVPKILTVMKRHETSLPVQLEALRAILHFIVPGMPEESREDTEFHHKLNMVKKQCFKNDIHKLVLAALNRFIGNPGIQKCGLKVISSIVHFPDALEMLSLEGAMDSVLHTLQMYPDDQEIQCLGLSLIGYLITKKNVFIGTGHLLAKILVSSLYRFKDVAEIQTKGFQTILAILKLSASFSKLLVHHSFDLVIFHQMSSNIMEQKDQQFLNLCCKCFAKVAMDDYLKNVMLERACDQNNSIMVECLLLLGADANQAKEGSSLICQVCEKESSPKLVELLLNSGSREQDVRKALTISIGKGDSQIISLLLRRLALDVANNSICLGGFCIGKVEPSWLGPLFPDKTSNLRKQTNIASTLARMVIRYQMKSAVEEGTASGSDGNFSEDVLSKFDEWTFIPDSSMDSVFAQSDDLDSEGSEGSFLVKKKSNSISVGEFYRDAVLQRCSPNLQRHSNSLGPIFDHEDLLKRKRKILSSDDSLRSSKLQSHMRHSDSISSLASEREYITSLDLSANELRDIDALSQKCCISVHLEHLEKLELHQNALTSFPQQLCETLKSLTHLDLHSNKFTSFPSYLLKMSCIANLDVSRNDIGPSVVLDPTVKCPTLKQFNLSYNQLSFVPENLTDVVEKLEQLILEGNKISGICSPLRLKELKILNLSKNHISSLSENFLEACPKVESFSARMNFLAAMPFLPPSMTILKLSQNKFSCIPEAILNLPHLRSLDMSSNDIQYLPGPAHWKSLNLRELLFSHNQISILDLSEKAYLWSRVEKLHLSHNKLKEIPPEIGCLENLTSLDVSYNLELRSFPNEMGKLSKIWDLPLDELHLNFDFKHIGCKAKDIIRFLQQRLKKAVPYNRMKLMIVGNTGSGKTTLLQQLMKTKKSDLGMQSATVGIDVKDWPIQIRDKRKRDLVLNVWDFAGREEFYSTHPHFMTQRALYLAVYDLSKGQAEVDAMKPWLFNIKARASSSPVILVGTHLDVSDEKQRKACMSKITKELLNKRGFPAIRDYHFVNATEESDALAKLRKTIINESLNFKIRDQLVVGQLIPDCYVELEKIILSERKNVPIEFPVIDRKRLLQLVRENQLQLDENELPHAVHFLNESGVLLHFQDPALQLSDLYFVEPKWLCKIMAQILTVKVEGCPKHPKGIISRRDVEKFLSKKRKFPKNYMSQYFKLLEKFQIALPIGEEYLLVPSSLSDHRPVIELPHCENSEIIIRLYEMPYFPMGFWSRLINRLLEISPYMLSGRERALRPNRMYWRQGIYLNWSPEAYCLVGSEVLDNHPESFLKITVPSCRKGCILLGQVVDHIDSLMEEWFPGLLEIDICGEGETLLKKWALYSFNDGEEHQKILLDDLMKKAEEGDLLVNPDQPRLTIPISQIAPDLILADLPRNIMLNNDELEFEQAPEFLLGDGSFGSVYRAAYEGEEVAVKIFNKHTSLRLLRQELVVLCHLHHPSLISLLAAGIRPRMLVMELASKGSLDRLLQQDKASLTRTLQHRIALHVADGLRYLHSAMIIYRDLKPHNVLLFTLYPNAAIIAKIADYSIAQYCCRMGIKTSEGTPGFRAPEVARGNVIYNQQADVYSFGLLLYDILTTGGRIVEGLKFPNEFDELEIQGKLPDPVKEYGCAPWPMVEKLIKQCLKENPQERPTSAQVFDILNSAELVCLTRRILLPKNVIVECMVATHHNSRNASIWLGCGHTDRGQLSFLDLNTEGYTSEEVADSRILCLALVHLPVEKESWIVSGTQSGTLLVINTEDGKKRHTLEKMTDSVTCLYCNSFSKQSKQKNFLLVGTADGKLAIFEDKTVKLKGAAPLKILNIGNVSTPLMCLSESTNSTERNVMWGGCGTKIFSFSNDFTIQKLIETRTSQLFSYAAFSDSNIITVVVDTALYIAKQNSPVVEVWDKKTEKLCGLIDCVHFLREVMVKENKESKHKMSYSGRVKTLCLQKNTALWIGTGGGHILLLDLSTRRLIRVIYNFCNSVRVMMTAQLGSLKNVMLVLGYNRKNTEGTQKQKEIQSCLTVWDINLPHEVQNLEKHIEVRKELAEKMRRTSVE
Procedure: as §1, §2, §3, §4

LRRK2 wt = LRRK2 wt (Homo sapiens, UniProt Q5S007); test: Kinase activity inhibition assay (ADP-Glo), LRRK2 wt; assay type: biochemical; details: for inhibition at 0.1 µM: read-out: LRRK2 wt inhibition rate at 100 nM, ATP 20 µM, compound at 100 nM
LRRK2 wt, sequence (Q5S007 whole entry): as the sequence (Q5S007 whole entry G2019S) above, with S2019G counted along it
Procedure: as §1, §2, §3, §4

Cc1nn2cc1Nc1ncc3c(Cl)cc(n3n1)CCCNC(=O)C2(C)C [Example T-25, (1^1Z,3^4E)-1^5-Chloro-3^3,4,4-trimethyl-3^1H-2,6-diaza-1(2,7)-pyrrolo[2,1-f][1,2,4]triazine-3(4,1)-pyrazolacyclononan-5-one]
pIC50 (DYRK2): 7.56 | pIC50 (FGFR1 V561M): 7.86 | pIC50 (FGFR2 V564I): 7.22 | pIC50 (KDR): 8.12 | pIC50 (PDGFRα): 7.17 | pIC50 (FGFR4): 7.23 | Cmax ([1]; 5 mg/kg, dose 5mpk): 0.63 µg/mL | Tmax ([1]; 5 mg/kg, dose 5mpk): 1 h | half-life ([1]; 5 mg/kg, dose 5mpk): 1.73 h | AUC(0-t) at 8 h ([1]; 5 mg/kg, dose 5mpk): 2.21 µg·h/mL | pIC50 (FGFR1): 6.74 | pIC50 (FGFR4 V550M): 6.98 | pIC50 (FGFR2): 7.50 | pIC50 (FLT1): 8.05 | pIC50 (FGFR2 N549H): 7.76 | pIC50 (FGFR3 V555L): 8.05 | pIC50 (FGFR3): 7.17 | pIC50 (FGFR3 V555M): 8.30 | pIC50 (FLT3): 7.05 | pIC50 (FGFR3 K650M): 7.85 | pIC50 (RET V804L): 7.36 | pIC50 (FGFR4 N535K): 6.21 | pIC50 (TYRO3): 7.25 | pIC50 (FGFR4 V550L): 6.68 | pIC50 (FGFR2 V564F): 8.76 | pIC50 (FLT4): 7.72

Cc1nn2cc1Nc1ncc3c(Cl)cn(c3n1)CCCN(C)C(=O)C2(C)C [Example T-7, (E)-1^5-Chloro-3^3,4,4,6-tetramethyl-1^7H,3^1H-2,6-diaza-1(2,7)-pyrrolo[2,3-d]pyrimidine-3(4,1)-pyrazolacyclononan-5-one]
inhibition at 0.1 µM (LRRK2 G2019S): 4.3% | inhibition at 0.3 µM (LRRK2 wt; read-out: LRRK2 wt inhibition rate @300 nM, ATP 20 µM, compound at 300 nM): 7%

Cc1nn2cc1Nc1ncc(C(F)(F)F)c(n1)NCCNC(=O)C2(C)C [Example T-12, (E)-3^3,4,4-Trimethyl-1^5-(trifluoromethyl)-3^1H-2,6,9-triaza-1(2,4)-pyrimidina-3(4,1)-pyrazolacyclononan-5-one]
inhibition at 0.3 µM (LRRK2 G2019S; read-out: LRRK2 G2019S inhibition rate @300 nM, ATP 100 µM, compound at 300 nM): 0.34% | inhibition at 0.1 µM (LRRK2 wt): 5.7%

CN1CCCNc2nc(ncc2C(F)(F)F)Nc2cn(nc2C2CC2)C2CC2C1=O (racemic) [Example T-10, (1^1R,1^2S,2^1R,E)-2^3-Cyclopropyl-9-methyl-4^5-(trifluoromethyl)-2^1H-3,5,9-triaza-4(2,4)-pyrimidina-2(1,4)-pyrazola-1(1,2)-cyclopropacyclodecan-10-one]
inhibition at 0.1 µM (LRRK2 G2019S): 92% | inhibition at 0.1 µM (LRRK2 wt): 94%

Cc1nn2cc1Nc1ncc(C(F)(F)F)c(n1)NCCCCNC(=O)C2(C)C [Example T-13, (E)-3^3,4,4-Trimethyl-1^5-(trifluoromethyl)-3^1H-2,6,11-triaza-1(2,4)-pyrimidina-3(4,1)-pyrazolacycloundecan-5-one]
inhibition at 0.1 µM (LRRK2 G2019S): 92% | inhibition at 0.1 µM (LRRK2 wt): 96%

Cc1nn2cc1Nc1ncc3c(Cl)cn(c3n1)CCCNC(=O)C2(C)C [Example T-6, (E)-1^5-Chloro-3^3,4,4-trimethyl-1^7H,3^1H-2,6-diaza-1(2,7)-pyrrolo[2,3-d]pyrimidine-3(4,1)-pyrazolacyclononan-5-one]
inhibition at 0.1 µM (LRRK2 G2019S): 88% | inhibition at 0.1 µM (LRRK2 wt): 92%

Cc1nn2cc1Nc1ncc(C(F)(F)F)c(n1)NCCCNC(=O)C2(C)C [Example T-1, (E)-3^3,4,4-Trimethyl-15-(trifluoromethyl)-3^1H-2,6,10-triaza-1(2,4)-pyrimidina-3(4,1)-pyrazolacyclodecan-5-one]
pIC50 (DYRK2): 6.61 | pIC50 (FGFR1 V561M): 7.57 | pIC50 (FGFR2 V564I): 7.12 | pIC50 (KDR): 7.72 | pIC50 (FGFR4): 7.48 | Cmax ([1]; 3 mg/kg, dose 3mpk): 0.755 µg/mL | Tmax ([1]; 3 mg/kg, dose 3mpk): 1 h | half-life ([1]; 3 mg/kg, dose 3mpk): 2.3 h | AUC(0-t) at 8 h ([1]; 3 mg/kg, dose 3mpk): 3.82 µg·h/mL | pIC50 (FGFR1): 6.87 | pIC50 (FGFR4 V550M): 6.90 | pIC50 (FGFR2): 7.66 | pIC50 (FLT1): 7.82 | pIC50 (FGFR2 N549H): 7.78 | pIC50 (FGFR3 V555L): 8.29 | pIC50 (FGFR3): 7.30 | pIC50 (FGFR3 V555M): 7.89 | pIC50 (FLT3): 6.43 | pIC50 (FGFR3 K650M): 8.04 | pIC50 (RET V804L): 6.76 | pIC50 (FGFR4 N535K): 6.22 | pIC50 (TYRO3): 6.56 | pIC50 (FGFR4 V550L): 7.17 | pIC50 (FGFR2 V564F): 8.08 | pIC50 (FLT4): 7.19
